# Measured values published in patent publication US20240294537A1, “SOLID STATE FORMS OF 4-[[4-(4-CHLOROANILINO)FURO[2,3-d]PYRIDAZIN-7-yl]OXYMETHYL]-N-METHYLPYRIDINE-2-CARBOXAMIDE AND SALT THEREOF” (TEVA PHARMACEUTICALS INTERNATIONAL GMBH, priority 2021, published 2024).
# Test: Stability of the solid state form upon exposure to humidity
# Format: physicochemical
# Protocol: Telatinib mono mesylate Form TM2 is stable upon exposure to high humidity. Telatinib mono mesylate is stable when exposed to 20-100% RH at 25° C. for 7 days.
smiles,measurement,value
CNC(=O)c1cc(COc2nnc(Nc3ccc(Cl)cc3)c3ccoc23)ccn1.CS(=O)(=O)O [Telatinib mono mesylate Form TM2],stability upon exposure to high humidity,stable
